# Residues, ends and D or L forms follow the SMILES beside them.
# Experiments:
# bovine serum albumin = assay: MicroScale Thermophoresis; assay type: binding; conditions: MST, FITC-labelled peptide
# [1] = biological target: MMP-2 targeting peptide (FITC-AA-…); assay: MST
Compound,nonspecific binding to bovine serum albumin (bovine serum albumin),Kd [1]
CC[C@H](C)[C@H](NC(=O)[C@H](CC(=O)O)NC(=O)[C@H](CC(C)C)NC(=O)[C@H](Cc1ccccc1)NC(=O)[C@H](CCC(=O)O)NC(=O)[C@H](CCC(N)=O)NC(=O)[C@H](CCCCN)NC(=O)[C@@H]1CCCN1C(=O)[C@H](C)NC(=O)[C@H](C)NC(=O)CNC(=O)[C@H](CCCNC(=N)N)NC(=O)[C@H](C)NC(=O)[C@H](C)NC(=S)Nc1ccc2c(c1)C(=O)OC21c2ccc(O)cc2Oc2cc(O)ccc21)C(=O)N[C@@H](CCC(=O)O)C(N)=O [MMP-2 targeting peptide] (HELM PEPTIDE1{[O=C1OC2(c3ccc(O)cc3Oc3cc(O)ccc32)c2ccc(NC(=S)[*:2])cc21].A.A.R.G.A.A.P.K.Q.E.F.L.D.I.E.[am]}$$$$V2.0),does not bind nonspecifically,
recombinant human MMP-2 (from UniProt P08253 30-660) (enzyme),,82.8 nM

# Source: PMC9733406 (ACS nano, 2022)
